Reference: ChEMBL document CHEMBL1127921, “Synthesis and study of a non macrocyclic FK506 derivative” (Bioorg Med Chem Lett, 1994)

Target: Peptidyl-prolyl cis-trans isomerase FKBP1A (Homo sapiens, UniProt P62942)
Experiment: Binding affinity towards immunophilin cytosolic protein FK506 binding protein 12 was determined

Chain of Peptidyl-prolyl cis-trans isomerase FKBP1A (P62942 whole entry): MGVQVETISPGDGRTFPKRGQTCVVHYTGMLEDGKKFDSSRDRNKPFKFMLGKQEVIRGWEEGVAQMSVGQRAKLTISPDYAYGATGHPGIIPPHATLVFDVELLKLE

C=CCC(CC=C)C(=O)C[C@H](O)[C@@H](C)[C@H](OC(=O)[C@@H]1CCCCN1C(=O)C(=O)[C@]1(O)O[C@H]([C@H](/C=C\C)OC)CC[C@H]1C)[C@H](C)C[C@@H]1CC[C@@H](O)[C@H](OC)C1 was tested, and the Ki was 207 nM.

CCC[C@H](/C=C(\C)C[C@H](C)C[C@H](OC)[C@H]1O[C@@](O)(C(=O)C(=O)N2CCCC[C@H]2C(=O)O[C@H](/C(C)=C/[C@@H]2CC[C@@H](O)[C@H](OC)C2)C(C)C)[C@H](C)C[C@@H]1OC)C(C)=O showed a Ki of 400 nM.
